Experimental data taken from US11390604B2 (Hoffmann-La Roche Inc., priority 2019, dated 2022).

Each compound was assayed on Acinetobacter baumannii ATCC 17961 (assay: Antimicrobial susceptibility testing: 90% growth inhibitory concentration (IC90) determination). Settings: ATCC17961, Acinetobacter baumannii ATCC 17961, Iso-Sensitest broth, read-out: ATCC 17961 IC90.
Format: cell-based
Outline: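 Growth was followed kinetically by OD600 at 20-min intervals for 16 h at 35±2 °C, with ~5×10^5 CFU/ml in Iso-Sensitest broth. Compounds were tested as twofold dilutions (e.g. 50–0.097 μM final). The concentration giving 90% inhibition of log-phase growth was reported.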

**Q.** Which IC90 does the source give for `CCc1cc(NC(=O)c2ncc(-c3cn(CC#N)nc3C(F)(F)F)n2C)ccc1C(=O)N1CCN(C(=O)[C@@H]2CCNC2)CC1` [Example 130, 5-[1-(cyanomethyl)-3-(trifluoromethyl)pyrazol-4-yl] N-[3-ethyl-4-[4-[(3R)-pyrrolidine-3-carbonyl]piperazine-1-carbonyl]phenyl]-1-methylimidazole-2-carboxamide;formic acid] here?
**A.** 947 nM

**Q.** For `CCc1cc(NC(=O)c2ncc(-c3cn(CC#N)nc3C(F)(F)F)n2C)ccc1C(=O)N1CCN(C(=O)C2CNC2)CC1` [Example 131, N-[4-[4-(azetidine-3-carbonyl)piperazine-1-carbonyl]-3-ethylphenyl]-5-[1-(cyanomethyl)-3-(trifluoromethyl)pyrazol-4-yl]-1-methylimidazole-2-carboxamide;formic acid], which IC90 is on record?
**A.** 1700 nM

**Q.** Which IC90 does the source give for `CCc1cc(NC(=O)c2ncc(-c3cn(CC#N)nc3C(F)(F)F)n2C)ccc1C(=O)N1CCN(C(=O)NCC2(O)CNC2)CC1` [Example 132, 4-[4-[[5-[1-(cyanomethyl)-3-(trifluoromethyl)pyrazol-4-yl]-1-methylimidazole-2-carbonyl]amino]-2-ethylbenzoyl]-N-[(3-hydroxyazetidin-3-yl)methyl]piperazine-1-carboxamide;formic acid] here?
**A.** 1170 nM

**Q.** Which IC90 does the source give for `CCc1cc(NC(=O)c2ncc(-c3cn(CC#N)nc3C(F)(F)F)n2C)ccc1C(=O)N1CCN(C(=O)N2CCCC(N)C2)CC1` (stereo not drawn) [Example 133, N-[4-[4-(3-aminopiperidine-1-carbonyl)piperazine-1-carbonyl]-3-ethylphenyl]-5-[1-(cyanomethyl)-3-(trifluoromethyl)pyrazol-4-yl]-1-methylimidazole-2-carboxamide;formic acid] here?
**A.** 775 nM

**Q.** Which IC90 does the source give for `CCc1cc(NC(=O)c2ncc(-c3cn(CC#N)nc3C(F)(F)F)n2C)ccc1C(=O)N1CCN(C(=O)N2CC3(CC(N)C3)C2)CC1` [Example 134, N-[4-[4-(6-amino-2-azaspiro[3.3]heptane-2-carbonyl)piperazine-1-carbonyl]-3-ethylphenyl]-5-[1-(cyanomethyl)-3-(trifluoromethyl)pyrazol-4-yl]-1-methylimidazole-2-carboxamide;formic acid] here?
**A.** 860 nM

**Q.** `CCc1cc(NC(=O)c2ncc(-c3cn(CC#N)nc3C(F)(F)F)n2C)ccc1C(=O)N1CCN(C(=O)N2CCNC(C)C2)CC1` (stereo not drawn) [Example 135, 5-[1-(cyanomethyl)-3-(trifluoromethyl)pyrazol-4-yl]-N-[3-ethyl-4-[4-(3-methylpiperazine-1-carbonyl)piperazine-1-carbonyl]phenyl]-1-methylimidazole-2-carboxamide;formic acid] was tested. Which IC90 did it give?
**A.** 885 nM

**Q.** How did the IC90 turn out when `CCc1cc(NC(=O)c2ncc(-c3cn(CC#N)nc3C(F)(F)F)n2C)ccc1C(=O)N1CCN(C(=O)N2CCC(C)(N)CC2)CC1` [Example 136, N-[4-[4-(4-amino-4-methylpiperidine-1-carbonyl)piperazine-1-carbonyl]-3-ethylphenyl]-5-[1-(cyanomethyl)-3-(trifluoromethyl)pyrazol-4-yl]-1-methylimidazole-2-carboxamide;formic acid] was run?
**A.** 741 nM

**Q.** Which IC90 does the source give for `CCc1cc(NC(=O)c2ncc(-c3cn(CC#N)nc3C(F)(F)F)n2C)ccc1C(=O)N1CCN(C(=O)N2CCC(CN)C2)CC1` (stereo not drawn) [Example 138, N-[4-[4-[3-(aminomethyl)pyrrolidine-1-carbonyl]piperazine-1-carbonyl]-3-ethylphenyl]-5-[1-(cyanomethyl)-3-(trifluoromethyl)pyrazol-4-yl]-1-methylimidazole-2-carboxamide;formic acid] here?
**A.** 888 nM

**Q.** Which IC90 does the source give for `CCc1cc(NC(=O)c2ncc(-c3cn(CC#N)nc3C(F)(F)F)n2C)ccc1C(=O)N1CCN(C(=O)N2CCCC2CN)CC1` (stereo not drawn) [Example 139, N-[4-[4-[2-(aminomethyl)pyrrolidine-1-carbonyl]piperazine-1-carbonyl]-3-ethylphenyl]-5-[1-(cyanomethyl)-3-(trifluoromethyl)pyrazol-4-yl]-1-methylimidazole-2-carboxamide;formic acid] here?
**A.** 1160 nM

**Q.** With `CCc1cc(NC(=O)c2ncc(-c3cn(CC#N)nc3C(F)(F)F)n2C)ccc1C(=O)N1CCN(C(=O)NC2C3CNCC32)CC1` (stereo not drawn) [Example 140, N-(3-azabicyclo[3.1.0]hexan-6-yl)-4-[4-[[5-[1-(cyanomethyl)-3-(trifluoromethyl)pyrazol-4-yl]-1-methylimidazole-2-carbonyl]amino]-2-ethylbenzoyl]piperazine-1-carboxamide;formic acid] as the compound, how does the IC90 read?
**A.** 1050 nM

**Q.** For `CCc1cc(NC(=O)c2ncc(-c3cn(CC#N)nc3C(F)(F)F)n2C)ccc1C(=O)N1CCN(C(=O)N2CC3CC2CN3)CC1` (stereo not drawn) [Example 141, 5-[1-(cyanomethyl)-3-(trifluoromethyl)pyrazol-4-yl]-N-[4-[4-(2,5-diazabicyclo[2.2.1]heptane-2-carbonyl)piperazine-1-carbonyl]-3-ethylphenyl]-1-methylimidazole-2-carboxamide;formic acid], which IC90 is on record?
**A.** 887 nM

**Q.** How did the IC90 turn out when `Cn1c(-c2cn(CC(F)F)nc2C(F)(F)F)cnc1C(=O)Nc1ccc(C(=O)N2CCN(C(=O)N[C@H]3CCNC3)CC2)c(Cl)c1` [Example 142, 4-[2-chloro-4-[[5-[1-(2,2-difluoroethyl)-3-(trifluoromethyl)pyrazol-4-yl]-1-methylimidazole-2-carbonyl]amino]benzoyl]-N-[(3S)-pyrrolidin-3-yl]piperazine-1-carboxamide;formic acid] was run?
**A.** 343 nM

**Q.** Which IC90 does the source give for `Cn1c(-c2cn(CC#N)nc2C(F)(F)F)cnc1C(=O)Nc1ccc(C(=O)N2CCN(C(=O)N[C@H]3CCNC3)CC2)c(Cl)c1` [Example 143, 4-[2-chloro-4-[[5-[1-(cyanomethyl)-3-(trifluoromethyl)pyrazol-4-yl]-1-methylimidazole-2-carbonyl]amino]benzoyl]-N-[(3S)-pyrrolidin-3-yl]piperazine-1-carboxamide;formic acid] here?
**A.** 426 nM

**Q.** `Cn1c(-c2cn(CCF)nc2C(F)(F)F)cnc1C(=O)Nc1ccc(C(=O)N2CCN(C(=O)NC3CNC3)CC2)c(Cl)c1` [Example 144, N-(azetidin-3-yl)-4-[2-chloro-4-[[5-[1-(2-fluoroethyl)-3-(trifluoromethyl)pyrazol-4-yl]-1-methylimidazole-2-carbonyl]amino]benzoyl]piperazine-1-carboxamide;formic acid] was tested. Which IC90 did it give?
**A.** 621 nM

**Q.** With `Cn1c(-c2cn(CCF)nc2C(F)(F)F)cnc1C(=O)Nc1ccc(C(=O)N2CCN(C3=NC(CN)CO3)CC2)c(Cl)c1` (stereo not drawn) [Example 145, N-[4-[4-[4-(aminomethyl)-4,5-dihydro-1,3-oxazol-2-yl]piperazine-1-carbonyl]-3-chlorophenyl]-5-[1-(2-fluoroethyl)-3-(trifluoromethyl)pyrazol-4-yl]-1-methylimidazole-2-carboxamide;formic acid] as the compound, how does the IC90 read?
**A.** 928 nM

**Q.** With `Cn1c(-c2cn(CC(F)F)nc2C(F)(F)F)cnc1C(=O)Nc1ccc(C(=O)N2CCN(C(=O)NC3CNC3)CC2)c(Cl)c1` [Example 146, N-(azetidin-3-yl)-4-[2-chloro-4-[[5-[1-(2,2-difluoroethyl)-3-(trifluoromethyl)pyrazol-4-yl]-1-methylimidazole-2-carbonyl]amino]benzoyl]piperazine-1-carboxamide;formic acid] as the compound, how does the IC90 read?
**A.** 434 nM

**Q.** With `C=CCn1cc(-c2cnc(C(=O)Nc3ccc(C(=O)N4CCN(C(=O)NC5CNC5)CC4)c(Cl)c3)n2C)c(C(F)(F)F)n1` [Example 147, N-(azetidin-3-yl)-4-[2-chloro-4-[[1-methyl-5-[1-prop-2-enyl-3-(trifluoromethyl)pyrazol-4-yl]imidazole-2-carbonyl]amino]benzoyl]piperazine-1-carboxamide] as the compound, how does the IC90 read?
**A.** 289 nM

**Q.** `Cn1c(-c2cn(CC(F)(F)F)nc2C(F)(F)F)cnc1C(=O)Nc1ccc(C(=O)N2CCN(C3=NC(CN)CO3)CC2)c(Cl)c1` (stereo not drawn) [Example 148, N-[4-[4-[4-(aminomethyl)-4,5-dihydro-1,3-oxazol-2-yl]piperazine-1-carbonyl]-3-chlorophenyl]-1-methyl-5-[1-(2,2,2-trifluoroethyl)-3-(trifluoromethyl)pyrazol-4-yl]imidazole-2-carboxamide] was tested. Which IC90 did it give?
**A.** 524 nM

**Q.** Which IC90 does the source give for `Cn1c(-c2cn(CC(F)(F)F)nc2C(F)(F)F)cnc1C(=O)Nc1ccc(C(=O)N2CCN(C(=O)NC3CNC3)CC2)c(Cl)c1` [Example 149, N-(azetidin-3-yl)-4-[2-chloro-4-[[1-methyl-5-[1-(2,2,2-trifluoroethyl)-3-(trifluoromethyl)pyrazol-4-yl]imidazole-2-carbonyl]amino]benzoyl]piperazine-1-carboxamide] here?
**A.** 550 nM

**Q.** With `Cn1c(-c2cn(C3CCC3)nc2C(F)(F)F)cnc1C(=O)Nc1ccc(C(=O)N2CCN(C(=O)NC3CNC3)CC2)c(Cl)c1` [Example 150, N-(azetidin-3-yl)-4-[2-chloro-4-[[5-[1-cyclobutyl-3-(trifluoromethyl)pyrazol-4-yl]-1-methylimidazole-2-carbonyl]amino]benzoyl]piperazine-1-carboxamide] as the compound, how does the IC90 read?
**A.** 324 nM

**Q.** Which IC90 does the source give for `Cn1c(-c2cn(CC#N)nc2C(F)(F)F)cnc1C(=O)Nc1ccc(C(=O)N2CCN(C(=O)NC3CNC3)CC2)c(Cl)c1` [Example 151] here?
**A.** 475 nM

**Q.** Which IC90 does the source give for `CCc1cc(NC(=O)c2ncc(-c3cn(CC(F)F)nc3C(F)(F)F)n2C)ccc1C(=O)N1CCN(C(=O)C2CCN(C)CC2)CC1` [Example 152, 5-[1-(2,2-difluoroethyl)-3-(trifluoromethyl)pyrazol-4-yl]-N-[3-ethyl-4-[4-(1-methylpiperidine-4-carbonyl)piperazine-1-carbonyl]phenyl]-1-methylimidazole-2-carboxamide] here?
**A.** 1170 nM

**Q.** Which IC90 does the source give for `CCc1cc(NC(=O)c2ncc(-c3cn(CC(F)F)nc3C(F)(F)F)n2C)ccc1C(=O)N1CCN(C(=O)C2CNC2)CC1` [Example 153, N-[4-[4-(azetidine-3-carbonyl)piperazine-1-carbonyl]-3-ethylphenyl]-5-[1-(2,2-difluoroethyl)-3-(trifluoromethyl)pyrazol-4-yl]-1-methylimidazole-2-carboxamide;formic acid] here?
**A.** 1000 nM

**Q.** Which IC90 does the source give for `CCc1cc(NC(=O)c2ncc(-c3cn(CC(F)F)nc3C(F)(F)F)n2C)ccc1C(=O)N1CCN(C(=O)C2CCNCC2)CC1` [Example 154, 5-[1-(2,2-difluoroethyl)-3-(trifluoromethyl)pyrazol-4-yl]-N-[3-ethyl-4-[4-(piperidine-4-carbonyl)piperazine-1-carbonyl]phenyl]-1-methylimidazole-2-carboxamide;formic acid] here?
**A.** 955 nM
